Experimental findings from patent US20120035161A1, “Novel Compositions and Methods of Treating Diseases Using the Same” (CORRIDOR PHARMACEUTICALS, INC., priority 2006, published 2012) are described below.

Structures are written as SMILES. “And” between values parts separate entries of the source, which are not always exact repeats. Equal entries are not always repeated.

In data set [1] the target is T1, Serotonin (5-Hydroxytryptamine) 5-HT1A (Homo sapiens, UniProt P08908).
T1 construct: expressed in transfected cells; host or cells: CHO cells
T1 sequence (P08908 1-422): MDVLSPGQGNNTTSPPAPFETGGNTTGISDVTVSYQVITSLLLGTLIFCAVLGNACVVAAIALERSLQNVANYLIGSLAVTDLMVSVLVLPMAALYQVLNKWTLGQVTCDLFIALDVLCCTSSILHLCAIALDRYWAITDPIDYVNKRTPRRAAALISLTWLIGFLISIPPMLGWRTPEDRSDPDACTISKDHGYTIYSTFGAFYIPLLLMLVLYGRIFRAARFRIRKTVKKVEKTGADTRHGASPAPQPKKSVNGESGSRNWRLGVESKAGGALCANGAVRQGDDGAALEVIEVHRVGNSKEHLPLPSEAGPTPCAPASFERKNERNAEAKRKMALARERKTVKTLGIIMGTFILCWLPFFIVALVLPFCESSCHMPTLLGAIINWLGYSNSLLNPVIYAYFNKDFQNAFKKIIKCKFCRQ
Kind of data set: Radioligand binding, 5-HT1A ([3H] 8-OH-DPAT). As to the method:
(§1) The methods employed in this study have been adapted from the scientific literature to maximize reliability and reproducibility. Reference standards were run as an integral part of each assay to ensure the validity of the results obtained. Assays were performed under conditions as described below. Where presented, IC50 values were determined by a non-linear, least squares regression analysis using the Data Analysis Toolbox (MDL Information Systems, San Leandro, Calif., USA). Where inhibition constants (Ki) are presented, the Ki values were calculated using the equation of Cheng and Prusoff (Cheng, Y., Prusoff, W. H., Biochem. Pharmacol. 22:3099-3108, 1973) using the observed IC50 of the tested compound, the concentration of radioligand employed in the assay, and historical values for the KD of the ligand. Where presented, the Hill coefficient (nu), defining the slope of the competitive binding curve, was calculated using the Data Analysis Toolbox.

The test system of data set [2] is cryopreserved mixed gender human hepatocytes. The data set can be described thus: Hepatocyte stability assay. The class given is in vitro ADME. The note with it: 5 μM test compound. As for the experimental part:
Test compounds (5 μM) were incubated with cryopreserved mixed gender human hepatocytes pooled from at least 3 donors. Cell viability of hepatocytes was assessed by a Trypan Blue assay prior to the initiation of the stability assay. The final hepatocyte cell density was 1.5×10^6 viable cells/mL, Samples were taken at 2 time points: 0 and 60 minutes. As positive controls, testosterone (20 μM) and 7-hydroxy-coumarin (100 μM) were incubated and sampled at 5 time points: 0, 15, 30, 60, and 120 minutes. Aliquots were removed and combined (50/50) with acetonitrile to terminate the reaction. Samples were mixed for 10 minutes and centrifuged. The supernatants were transferred to vial for analysis by HRMS. In this assay, both test compound and a des-glycine metabolite (M1) are quantified based on peak area response ratios.
The enzymatic activities of the human cryopreserved hepatocytes used in this study were verified in parallel by determining the disappearance of testosterone (expressed as half-life) and the formation of 7-hydroxycoumarin glucuronide and 7-hydroxycoumarin sulfate (expressed as a formation rate).

Data set [3] has as its system Serotonin (5-Hydroxytryptamine) 5-HT2, Non-Selective. The data set can be described thus: Assay 271600 radioligand binding, 5-HT2 non-selective. Further details: species or system Wistar Rat. As for the experimental part: as §1
Data set [4] can be described thus: Phospholipidosis assay (LipidTox). Format: cell-based. Conditions: human. As for the experimental part: (§2) More recently, fluorescent dyes have been utilized to assess phospholipidosis in a high throughput manner (Nioi et al., 2007, Toxicol. Sci. 99:162-173). In this assay, HepG2 cells are plated in MEM growth medium and allowed to incubate overnight. Cells are treated with test compounds that have been added to the assay medium (10% fetal bovine serum) containing LipidTox (fluorescent lipophilic dye). After 48 h incubation, cells are fixed and stained with Hoechst. Plates are scanned with an automated fluorescent microscope (Thermo Fisher Cellomics ArrayScan 4.5) and image analysis is used to quantitate cell number and phospholipid accumulation. Compounds are tested in triplicate at multiple concentrations. Three reference compounds, sertraline, perhexyline, and meclizine (high, medium, and low inducers of phospholipidosis, respectively) are included in each assay. The data is expressed as fold induction over background and the % of the positive control (sertraline), which is calculated using the following equation:
(§3) % positive control=100×(RFUcompound−RFUbackground)/(RFUsertaline−RFUbackground),
(§4) where RFU=Relative Fluorescence Unit

The test system of the next data set is HepG2 cells. Kind of data set: Phospholipidosis assay (LipidTox). The class given is cell-based. Conditions: human, 48 h. As for the experimental part:
as §2, §3, §4

In data set [5] the target is T2, Serotonin (5-Hydroxytryptamine) 5-HT1B (Rattus norvegicus, UniProt P28564).
T2 construct: from tissue
Kind of data set: Assay 271200 radioligand binding, 5-HT1B. Further details: species or system Wistar Rat. As to the method: as §1

T2 sequence (P28564 whole entry): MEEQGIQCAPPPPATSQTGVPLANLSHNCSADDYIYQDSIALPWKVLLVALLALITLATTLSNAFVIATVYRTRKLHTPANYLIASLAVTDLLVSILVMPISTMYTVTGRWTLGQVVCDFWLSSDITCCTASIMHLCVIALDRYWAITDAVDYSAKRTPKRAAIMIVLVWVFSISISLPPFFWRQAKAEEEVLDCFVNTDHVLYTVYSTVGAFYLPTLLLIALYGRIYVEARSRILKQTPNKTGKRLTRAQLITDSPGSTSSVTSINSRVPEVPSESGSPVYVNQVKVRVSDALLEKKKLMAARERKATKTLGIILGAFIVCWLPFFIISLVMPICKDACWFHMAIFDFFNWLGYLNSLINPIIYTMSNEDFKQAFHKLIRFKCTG

With `NCC(=O)NCCN1CCN(CCCN2c3ccccc3Sc3ccc(C(F)(F)F)cc32)CC1` [ICI-735], at 0.1 µM the inhibition in data set [1] (0.1 μM) was 14%. Also, the inhibition at 10 µM in data set [1] (10 μM) worked out at 89%. Moreover, the “Relative Level (%)” value in data set [2] (T = 0 minutes) was 99.5% and 100.5%. Further, in data set [2] (T = 60 minutes), the “Peak Areas” value is 8.39E+06 and 8.79E+06; the “Relative Level (%)” value was 89.6% and 92.4%. Further, the “% INHIBITION” value in data set [3] (0.1 μM) worked out at 62%. Also, in data set [3] (10 μM), the “% INHIBITION” value stood at 91%. In data set [4], this molecule showed a cytotoxicity at 48 h, 1 µM of 0%; a cytotoxicity at 48 h, 3 µM of 68%; a cytotoxicity at 48 h, 10 µM of 100%; a cytotoxicity at 48 h, 30 µM of 100%. For the same molecule, in data set [4], the fold induction at 48 h, 1 µM was 23 and the fold induction at 48 h, 3 µM is 6. Besides, the “% Positive Control” value in the data set with HepG2 cells (1 μM) is listed as 43%. The “% Positive Control” value with HepG2 cells (3 μM) turned out to be 10%. The inhibition at 0.1 µM in data set [5] (0.1 μM) was 13%. In data set [5] (10 μM), this molecule showed an inhibition at 10 µM of 86%.

The inhibition is the percentage by which the read-out fell short of the control. Usually fold induction stands for the ratio of treated to control signal. A high value points to a strong induction.
